This note sets out measurements from PMC11790949, “A multiplex method for rapidly identifying viral protease inhibitors” (Molecular Systems Biology, 2025).

Several values for one entry are separate records, joined by “and”; a condition that tells them apart may be missing. Equal values may be shown once.

Test [1] addresses T1, SARS-CoV-2 3CL protease (Severe acute respiratory syndrome coronavirus 2, UniProt P0DTD1). Put plainly: Biochemical inhibition of peptide cleavage by purified SARS-CoV-2 3CL protease (fluorogenic).
Test [2] deals with T1, SARS-CoV-2 3CL protease. Put plainly: Mass spectrometry (MALDI-TOF) analysis of protein-inhibitor complex. It is filed as binding. The settings on record: 50 μM protease, 500 μM inhibitor, 1 h at 4 °C. The procedure:
For MALDI-TOF MS analysis, 1 µL of the protein-inhibitor complex (3CL protease only and 3CL protease-CB6778425) was mixed with 9 µL of 10 mg/mL sinapinic acid in the matrix solution (70:30 water/acetonitrile, with 0.1% TFA). About 1.0 µL of the final mix was deposited onto the target carrier and allowed to air dry. MALDI spectra of the protein-inhibitor complex were compared with ligand-free 3CL protease to determine the mass shift. MALDI spectra were collected with the software flexControl, while MALDI data were analyzed by flexAnalysis.

Where [3] appears, read: read-out: SARS-CoV-2 3CL Inhibition (%).

As usually defined, the IC50 is the midpoint of a concentration-inhibition curve. As a reminder, the inhibition is the change of the read-out against control, counted positive when it falls.

In the case of `O=C(Oc1ccc2ccc(=O)oc2c1)c1cccs1` [CB6762077], at SARS-CoV-2 3CL protease [1], the IC50 is 1100 nM and the “shift of IC50 upon pre-incubation with SARS-CoV-2 3CL” value is “shifts to lower IC50s”. For the same molecule, at SARS-CoV-2 3CL protease [1] (setting [3]), the inhibition at 0.19382 µM is 71.8%, the inhibition at 0.390625 µM was 12.9%, the inhibition at 0.49485 µM amounted to 77.7% and the inhibition at 0.78125 µM came out at 30.2%. In addition, at SARS-CoV-2 3CL protease [1] (setting [3]), the inhibition at 0.79588 µM was determined as 75.9%, the inhibition at 1.09691 µM worked out at 90.1%, the inhibition at 1.39794 µM worked out at 88.9% and the inhibition at 1.69897 µM was determined as 94.3%. In addition, on SARS-CoV-2 3CL protease [1] (setting [3]), the inhibition at 2 µM was 112%.
As for `O=C(Oc1ccc2ccc(=O)oc2c1)c1ccco1` [CB6778425], on SARS-CoV-2 3CL protease [1] (setting [3]), the inhibition at 0.000762939 µM came to 0.215%, the inhibition at 0.00152588 µM came out at 4.28%, the inhibition at 0.0244141 µM came out at 19.7% and the inhibition at 0.0488281 µM was determined as 39.2%. In addition, on SARS-CoV-2 3CL protease [1] (setting [3]), the inhibition at 0.0976563 µM worked out at 62.7%, the inhibition at 0.19382 µM came to 104%, the inhibition at 0.195313 µM came out at 85.1% and the inhibition at 0.390625 µM came to 94.5%. Moreover, at SARS-CoV-2 3CL protease [1] (setting [3]), the inhibition at 0.49485 µM was 102%, the inhibition at 0.78125 µM was 98.7%, the inhibition at 0.79588 µM came to 95% and the inhibition at 1.09691 µM is 96.4%. Further, on SARS-CoV-2 3CL protease [1] (setting [3]), the inhibition at 1.39794 µM turned out to be 103%, the inhibition at 1.69897 µM worked out at 98%, the inhibition at 2 µM was determined as 95% and the inhibition at 2.30103 µM was determined as 90.6%. In addition, the inhibition at […] on SARS-CoV-2 3CL protease [1] (setting [3]) came out at 11.4%. The “mass shift in the protease-inhibitor complex” value on SARS-CoV-2 3CL protease [2] is given as ~ 95 Da.
Take `CCc1cc(=O)oc2cc(OC(=O)c3ccco3)ccc12` [CB6728297]: at SARS-CoV-2 3CL protease [1], it took 245 nM to reach half-maximal inhibition (IC50) and the “shift of IC50 upon pre-incubation with SARS-CoV-2 3CL” value was “shifts to lower IC50s”. Moreover, on SARS-CoV-2 3CL protease [1] (setting [3]), the inhibition at 0.0976563 µM stood at 9.07%; the inhibition at 0.19382 µM was 94.7% and 89.2%; the inhibition at 0.195313 µM came to 39.5%; the inhibition at 0.390625 µM was found to be 64.9%. Besides, at SARS-CoV-2 3CL protease [1] (setting [3]), the inhibition at 0.49485 µM came out at 88.9%, the inhibition at 0.78125 µM is 90.8%, the inhibition at 0.79588 µM stood at 93.8% and the inhibition at 1.09691 µM came out at 98.7%. Also, on SARS-CoV-2 3CL protease [1] (setting [3]), the inhibition at 1.39794 µM turned out to be 93.4%, the inhibition at 1.69897 µM came out at 95.6%, the inhibition at 2 µM came out at 88.8% and the inhibition at 2.30103 µM was 99.1%.
